US20120184562A1, “1,6- AND 1,8-NAPHTHYRIDINES” (priority 2011, published 2012)
Where a name gives a salt, the structure may show the parent alone.

Legend:
Human DYRK1B = molecular target: T1, Human DYRK1B (Homo sapiens, UniProt Q9Y463); test: DYRK1B Kinase TR-FRET (IMAP-Tb) Assay; format: biochemical; details: TR-FRET (IMAP-Tb); ATP 70 μM; 37° C., 60 minutes; average of multiple runs; read-out: Enzyme IC50 (μM) DYRK1B
T1 construct: purchased Invitrogen PR8350B (former PV4649)
Text: DYRK1B Kinase TR-FRET (IMAP-Tb) Assay The kinase TR-FRET (IMAP-Tb) assay uses a fluorescence labeled substrate peptide in the kinase reaction. Upon phosphorylation by the kinase, phosphopeptide is produced, which will be detected by the binding solution provided in IMAP TR-FRET binding kit. After the completion of the kinase reaction, the reaction will be stopped by adding the binding solution containing terbium tracer. This tracer is immobilized on the surface of the IMAP beads, which also contain metal ions on the beads that bind to the phospho-groups of the products. Thus the phosphorylated product of the reaction can enter into close proximity to the tracer, producing resonance energy transfer. Due to the long lifetime of terbium (Tb) fluorescence the detection can be run in time resolved mode, which virtually eliminates fluorescence interference from assay components or compounds. The TR-FRET signal measurement from this assay, given as an IC50 measurement, is a measure of a test compound's ability to interfere with the phosphorylation of the peptide substrate, that is it inhibits the phosphorylation of the substrate peptide by DYRK1B, and is thus a measure of the test compound's ability to inhibit the activity of DYRK1B. […] Human DYRK1B: from Invitrogen. Part #PR8350B (former PV4649) • 2. Substrate Peptide: in-house synthesized: RRRFRPASPLRGPPK • 3. IMAP TR-FRET IPP Explorer Kit: from Molecular Devices. Part #R8157 • 4. Kinase Assay Buffer (KAB): 10 mM HEPES pH 7.0, 50 mM NaCl, 5 mM MgCl2, 1 mM DTT, 1 mM NaVO4, 200 μg/mL BSA (0.02%) • 5. Assay Plate: Remp polypropylene clear 384-well microplate. Cat#23490-102 • 6. Detection Plate: Costa black 384-well microplate. Cat #3710 Assay Procedure: This assay was performed as follows: • 1. Transfer 1.5 μL of 20× compound solution to each well of an assay plate. • 2. Add to each well 22.5 μL of KAB Buffer. • 3. Add to each well 3 μL of the solution of DYRK1B and ATP. […] Add to each well 3 μL of the substrate peptide. The assay concentration is 1.0 μM • 5. Incubate the assay plates at 37° C. for 60 minutes. • 6. Add 18 μL of Detection Solution (1:800 diluted Progress bead stock, 1:400 diluted Tb stock, 80% Buffer A, and 20% Buffer B) into each well of detection plates. • 7. Transfer 6 μL of assay solution from the assay plate to the detection plate. • 8. Shake detection plates for 30 minutes. • 9. Read plates in Envision with wavelength set at excitation 340 nm for Tb, emission 490 nm, and […] 520 nm. • 10. Calculation: TR-FRET Signal=(Reading at […]/Reading at 490 nM)×2000000

Human DYRK1A = molecular target: T2, Human DYRK1A (Homo sapiens, UniProt Q13627); test: DYRK1A Kinase TR-FRET (IMAP-Tb) Assay; format: biochemical; details: TR-FRET (IMAP-Tb); ATP 70 μM; 37° C., 60 minutes; average of multiple runs; read-out: Enzyme IC50 (μM) DYRK1A
T2 construct: purchased Invitrogen PV3997
Text: DYRK1A Kinase TR-FRET (IMAP-Tb) Assay
The kinase TR-FRET (IMAP-Tb) assay uses a fluorescence labeled substrate peptide in the kinase reaction. Upon phosphorylation by the kinase, phosphopeptide is produced, which will be detected by the binding solution provided in IMAP TR-FRET binding kit. After the completion of the kinase reaction, the reaction will be stopped by adding the binding solution containing terbium tracer. This tracer is immobilized on the surface of the IMAP beads, which also contain metal ions on the beads that bind to the phospho-groups of the products. Thus the phosphorylated product of the reaction can enter into close proximity to the tracer, producing resonance energy transfer. Due to the long lifetime of terbium (Tb) fluorescence the detection can be run in time resolved mode, which virtually eliminates fluorescence interference from assay components or compounds.
The TR-FRET signal measurement from this assay, given as an IC50 measurement, is a measure of a test compound's ability to interfere with the phosphorylation of the peptide substrate, that is it inhibits the phosphorylation of the substrate peptide by DYRK1A, and is thus a measure of the test compound's ability to inhibit the activity of DYRK1A.
• 1. Human DYRK1A: from Invitrogen. Part #PV3997 • 2. Substrate Peptide: […] • 3. IMAP TR-FRET IPP Explorer Kit: from Molecular Devices. Part #R8157 • 4. Kinase Assay Buffer (KAB): 10 mM HEPES pH 7.0, 50 mM NaCl, 5 mM MgCl2, 1 mM DTT, 1 mM NaVO4, 200 μg/mL BSA (0.02%) • 5. Assay Plate: Remp polypropylene clear 384-well microplate. […] Detection Plate: Costa black 384-well microplate. […] Transfer 1.5 μL of 20× compound solution to each well of an assay plate. • 2. Add to each well 22.5 μL of KAB Buffer. • 3. Add to each well 3 μL of the solution of DYRK1A and ATP. […] Add to each well 3 μL of the substrate peptide. The assay concentration is 1.0 μM • 5. Incubate the assay plates at 37° C. for 60 minutes. • 6. Add 18 μL of Detection Solution (1:800 diluted Progress bead stock, 1:400 diluted Tb stock, 80% Buffer A, and 20% Buffer B) into each well of detection plates. • 7. Transfer 6 μL of assay solution from the assay plate to the detection plate. • 8. Shake detection plates for 30 minutes. • 9. Read plates in Envision with wavelength set at excitation 340 nm for Tb, emission 490 nm, and […].

[1] = tested on: SW620 human colon cancer cells; test: SW620 Cell Viability Assay; format: cell-based; details: SW-620, 96 h, 4 days incubation, CellTiter-Glo Luminescent Cell Viability Assay, read-out: Cellular EC50 (μM) SW620
Experimental: SW620 Cell Viability Assay
1. Cell Plate Preparation: SW620 human colon cancer cells (known to express DYRK1B), obtained from ATCC, were seeded into 96-well plates at 3×10^3 cells/well in 50 μL of media. • Harvested the required number of cells (counts & viability determined by Guava Viacount). • Centrifuge cells to pellet and removed supernant. • Resuspended in growth media (50 μL/well) & pipetted thoroughly to break up clumps. • Setup for ˜100 wells/plate, therefore, VT=5 mL/plate @ […]. 1A. Some cells (S—) were allowed to attach for 24 hrs, serum starved for 48 hrs, and then followed with drug treatments. Test compound solution were prepared in regular corresponding media supplemented with serum. 2. Test Compound Preparation: Test compounds were solubilized in either DMSO or media and prepared at various stock concentrations. • All compounds were incubated at 37° C. for 30 minutes and vortexed. • (5 mM stocks of test compound were prepared for non-soluble compounds)
• The 10 mM test compound stock was diluted to a concentration of 100× the final Cmax concentration. • Then the test compound stock is diluted 50-fold in media and/or second compound for a final Cmax concentration in the test compound plate. • The Cmax in the test compound plate (2% DMSO) is 2-fold higher than the final Cmax in the cell plate (60 uL titrations were 1:3). 4. Viability Assay: This assay was performed as follows: • Transfer 50 μL of test compound solution per well from the test compound plate onto the cell plate prepared in Step #1. • Mix the plate with treated cells by pipetting up and down three times with 200 μL multi-channel pipette. • Incubate the cells in 5% CO2 incubator @ 37° C. for 4 days. • Run the CellTiter-Glo™ Luminescent Cell Viability Assay.
The results of this assay, given as EC50 values, indicate the concentration of test compound that inhibits tumor cell proliferation by 50%.

T1 sequence (Q9Y463 whole entry): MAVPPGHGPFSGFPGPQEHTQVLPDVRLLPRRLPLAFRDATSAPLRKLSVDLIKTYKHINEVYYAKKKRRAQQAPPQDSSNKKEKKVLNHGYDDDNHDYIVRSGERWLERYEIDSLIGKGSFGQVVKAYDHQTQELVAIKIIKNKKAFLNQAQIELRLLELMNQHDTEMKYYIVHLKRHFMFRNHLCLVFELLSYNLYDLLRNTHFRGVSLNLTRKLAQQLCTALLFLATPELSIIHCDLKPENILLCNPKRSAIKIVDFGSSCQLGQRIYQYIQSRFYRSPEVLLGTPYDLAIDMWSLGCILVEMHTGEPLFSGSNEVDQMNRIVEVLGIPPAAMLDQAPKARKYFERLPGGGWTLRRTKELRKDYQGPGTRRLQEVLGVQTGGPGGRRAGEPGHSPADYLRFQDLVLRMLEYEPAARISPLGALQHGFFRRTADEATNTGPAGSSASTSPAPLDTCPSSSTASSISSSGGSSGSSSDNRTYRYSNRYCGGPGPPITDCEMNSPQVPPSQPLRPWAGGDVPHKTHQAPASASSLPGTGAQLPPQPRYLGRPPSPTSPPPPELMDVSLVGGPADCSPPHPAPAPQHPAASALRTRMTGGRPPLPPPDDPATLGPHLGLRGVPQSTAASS

| Structure (SMILES) | IC50 (Human DYRK1B) | IC50 (Human DYRK1A) | EC50 [1] |
| --- | --- | --- | --- |
| COc1cc2[nH]c(=O)c(C(=O)Nc3cc(C(=O)NC(CN)c4ccsc4)ccc3C)cc2cn1 (stereo not drawn) [Example 59, 7-Methoxy-2-oxo-1,2-dihydro-[1,6]naphthyridine-3-carboxylic acid [5-(2-amino-1-thiophen-3-yl-ethylcarbamoyl)-2-methyl-phenyl]-amide; hydrochloride] | 0.0308 µM | 0.0113 µM | 0.299 µM |
| COc1cc2[nH]c(=O)c(C(=O)Nc3cc(C(=O)NC(CCN)c4ccccc4)ccc3C)cc2cn1 (stereo not drawn) [Example 61, 7-Methoxy-2-oxo-1,2-dihydro-[1,6]naphthyridine-3-carboxylic acid [5-(3-amino-1-phenyl-propylcarbamoyl)-2-methyl-phenyl]-amide; hydrochloride] | 0.155 µM | 0.034 µM | 2.27 µM |
| COc1cc2[nH]c(=O)c(C(=O)Nc3cc(C(=O)NC(CCN)c4ccsc4)ccc3C)cc2cn1 (stereo not drawn) [Example 63, 7-Methoxy-2-oxo-1,2-dihydro-[1,6]naphthyridine-3-carboxylic acid [5-(3-amino-1-thiophen-3-yl-propylcarbamoyl)-2-methyl-phenyl]-amide] | 0.023 µM | 0.0046 µM | 0.205 µM |
| COc1cc2[nH]c(=O)c(C(=O)Nc3cc(C(=O)NC(CCN)c4cccc(Cl)c4)ccc3C)cc2cn1 (stereo not drawn) [Example 65, 7-Methoxy-2-oxo-1,2-dihydro-[1,6]naphthyridine-3-carboxylic acid {5-[3-amino-1-(3-chloro-phenyl)-propylcarbamoyl]-2-methyl-phenyl}-amide; hydrochloride] | 0.21 µM | 0.0974 µM | 0.915 µM |
| COc1cc2[nH]c(=O)c(C(=O)Nc3cc(C(=O)NC(CCN)c4cccc(Cl)c4)ccc3Cl)cc2cn1 (stereo not drawn) [Example 67, 7-Methoxy-2-oxo-1,2-dihydro-[1,6]naphthyridine-3-carboxylic acid {5-[3-amino-1-(3-chloro-phenyl)-propylcarbamoyl]-2-chloro-phenyl}-amide; hydrochloride] | 0.0854 µM | 0.00952 µM | 0.103 µM |
| COc1cc2[nH]c(=O)c(C(=O)Nc3cc(C(=O)NC(CCN)c4ccccc4)ccc3Cl)cc2cn1 (stereo not drawn) [Example 69, 7-Methoxy-2-oxo-1,2-dihydro-[1,6]naphthyridine-3-carboxylic acid [5-(3-amino-1-phenyl-propylcarbamoyl)-2-chloro-phenyl]-amide; hydrochloride] | 0.0137 µM | 0.0124 µM | 0.256 µM |
| COC(=O)c1ccc(Cl)c(NC(=O)c2cc3cnc(N4CCN(C)CC4)cc3[nH]c2=O)c1 [Example 73, 4-Chloro-3-{[7-(4-methyl-piperazin-1-yl)-2-oxo-1,2-dihydro-[1,6]naphthyridine-3-carbonyl]-amino}-benzoic acid methyl ester] | 0.96 µM | 0.425 µM | > 10 µM |
| COC(=O)c1ccc(Cl)c(NC(=O)c2cc3ccc(N4CCN(C)CC4)nc3[nH]c2=O)c1 [Example 88, 4-Chloro-3-{[7-(4-methyl-piperazin-1-yl)-2-oxo-1,2-dihydro-[1,8]naphthyridine-3-carbonyl]-amino}-benzoic acid methyl ester] | 0.513 µM | 0.451 µM | 1.53 µM |
| COC(=O)c1ccc(Cl)c(NC(=O)c2cc3ccc(OC)nc3[nH]c2=O)c1 [Example 90, 4-Chloro-3-[(7-methoxy-2-oxo-1,2-dihydro-[1,8]naphthyridine-3-carbonyl)-amino]-benzoic acid methyl ester] | 0.168 µM | > 10 µM | > 10 µM |
| COc1ccc2cc(C(=O)Nc3cc(C(=O)NCc4cccc(Cl)c4)ccc3Cl)c(=O)[nH]c2n1 [Example 95, N-(2-Chloro-5-(3-chlorobenzylcarbamoyl)phenyl)-7-methoxy-2-oxo-1,2-dihydro-1,8-naphthyridine-3-carboxamide] | 0.047 µM | 0.019 µM | 1.24 µM |
| COc1ccc2cc(C(=O)Nc3cc(C(=O)NCc4cccc(Cl)c4)ccc3C)c(=O)[nH]c2n1 [Example 99, N-(5-(3-Chlorobenzylcarbamoyl)-2-methylphenyl)-7-methoxy-2-oxo-1,2-dihydro-1,8-naphthyridine-3-carboxamide] | 0.235 µM | 0.123 µM | > 10 µM |
| COc1ccc2cc(C(=O)Nc3cc(C(=O)NC(CCN)c4ccccc4)ccc3Cl)c(=O)[nH]c2n1 (stereo not drawn) [Example 101, N-(5-(3-Amino-1-phenylpropylcarbamoyl)-2-chlorophenyl)-7-methoxy-2-oxo-1,2-dihydro-1,8-naphthyridine-3-carboxamide] | 0.0527 µM | 0.0392 µM | 0.0273 µM |
